Test results from PMC9698483, “Berbamine Reduces Chloroquine-Induced Itch in Mice through Inhibition of MrgprX1” (International Journal of Molecular Sciences, 2022).

Assays:
[1] = biological target: T1, histamine H1 receptor (H1R) (Homo sapiens, UniProt P35367); test: Histamine-induced activation of H1R in H1R-expressing HEK293T cells (calcium); assay type: cell-based; conditions: 30 μM compound, 10 min prior to 100 μM histamine
T1 construct: expressed in transfected cells; host or cells: HEK293T
T1 sequence (P35367 whole entry, species assumed): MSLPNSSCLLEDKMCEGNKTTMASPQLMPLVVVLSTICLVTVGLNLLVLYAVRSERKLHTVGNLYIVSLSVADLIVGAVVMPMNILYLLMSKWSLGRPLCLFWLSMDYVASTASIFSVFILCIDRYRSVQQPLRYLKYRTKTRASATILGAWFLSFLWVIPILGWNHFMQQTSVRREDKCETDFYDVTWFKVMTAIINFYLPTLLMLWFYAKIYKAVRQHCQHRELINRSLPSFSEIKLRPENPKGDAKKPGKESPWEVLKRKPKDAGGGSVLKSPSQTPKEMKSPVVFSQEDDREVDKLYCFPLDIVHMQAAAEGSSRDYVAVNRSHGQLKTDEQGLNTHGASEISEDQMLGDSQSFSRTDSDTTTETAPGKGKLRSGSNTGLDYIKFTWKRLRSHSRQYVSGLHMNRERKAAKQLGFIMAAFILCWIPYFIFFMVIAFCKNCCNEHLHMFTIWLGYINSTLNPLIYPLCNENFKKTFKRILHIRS
Description: (§1) To investigate the effect of berbamine on other pruritogenic GPCRs, we observed the effect of berbamine on histamine H1 receptor (H1R), histamine H4 receptor (H4R), MrgprC11, MrgprX4, PAR2, and TGR5.
(§2) Figure 3 Effects of berbamine on the activity of other pruritogenic GPCRs: (A,B) Effect of berbamine on histamine 1 receptor (H1R) and histamine 4 receptor (H4R). H1R- and H4R-expressing HEK293T cells were pretreated with 30 μM BBM for 10 min prior to 100 μM histamine treatment. […] (C) Effect of berbamine on PAR2. HT29 cells were pretreated with BBM for 10 min prior to 30 μM PAR2-AP treatment. […] (D) Effect of berbamine on MrgprC11. MrgprC11-expressing HEK293T cells were pretreated with BBM for 10 min prior to 100 μM […] treatment. (E) Effect of berbamine on MrgprX4. MrgprX4-expressing HEK293T cells were pretreated with BBM for 10 min prior to 80 μM DCA treatment. (F) Effect of berbamine on TGR5. TGR5 activity was measured using a YFP fluorescence quenching assay. CHO-K1 cells coexpressing TGR5 and a halide sensor YFP were pretreated with BBM and 80 μM DCA for 10 min prior to I^- treatment. Results were summarized as means ± S.E. (n = 6). NTC, nontransfected cells.
(§3) Intracellular calcium levels were measured using a Fluo-4 NW calcium assay kit (Invitrogen, Carlsbad, CA) as per the manufacturer’s protocol in HEK293T and HT29 cells. […]

[2] = biological target: T2, histamine H4 receptor (H4R) (Homo sapiens, UniProt Q9H3N8); test: Histamine-induced activation of H4R in H4R-expressing HEK293T cells (calcium); assay type: cell-based; conditions: 30 μM compound, 10 min prior to 100 μM histamine
T2 construct: expressed in transfected cells; host or cells: HEK293T
T2 sequence (Q9H3N8 whole entry, species assumed): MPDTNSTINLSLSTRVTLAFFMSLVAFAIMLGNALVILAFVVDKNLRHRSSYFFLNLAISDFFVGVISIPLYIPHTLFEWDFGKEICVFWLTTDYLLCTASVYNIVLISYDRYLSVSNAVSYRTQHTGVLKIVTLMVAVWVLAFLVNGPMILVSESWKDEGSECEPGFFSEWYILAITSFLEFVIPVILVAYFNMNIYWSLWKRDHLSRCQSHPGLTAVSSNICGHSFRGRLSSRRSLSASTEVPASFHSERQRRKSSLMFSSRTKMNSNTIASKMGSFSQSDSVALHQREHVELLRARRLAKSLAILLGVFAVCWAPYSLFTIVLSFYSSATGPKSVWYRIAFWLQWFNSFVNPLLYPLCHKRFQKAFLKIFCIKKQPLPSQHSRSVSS
Description: as §1, §2, §3

[3] = biological target: T3, MrgprX4 (Homo sapiens, UniProt Q96LA9); test: DCA-induced activation of MrgprX4 in MrgprX4-expressing HEK293T cells (calcium); assay type: cell-based; conditions: 30 μM, 10 min prior to 80 μM DCA
T3 construct: expressed in transfected cells; host or cells: HEK293T
T3 sequence (Q96LA9 whole entry): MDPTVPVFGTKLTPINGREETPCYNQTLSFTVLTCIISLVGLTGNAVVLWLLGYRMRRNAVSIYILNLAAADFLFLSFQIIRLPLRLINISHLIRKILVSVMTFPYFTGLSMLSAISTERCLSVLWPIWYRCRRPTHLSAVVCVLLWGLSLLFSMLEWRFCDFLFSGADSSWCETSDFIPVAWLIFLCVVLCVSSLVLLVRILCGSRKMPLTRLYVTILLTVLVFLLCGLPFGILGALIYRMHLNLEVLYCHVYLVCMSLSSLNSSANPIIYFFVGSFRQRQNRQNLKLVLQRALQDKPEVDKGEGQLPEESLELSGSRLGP
Description: as §1, §2, §3

[4] = biological target: T4, TGR5 (Homo sapiens, UniProt Q8TDU6); test: TGR5 activity by YFP fluorescence quenching assay in CHO-K1 cells; assay type: cell-based; conditions: 30 μM with 80 μM DCA for 10 min
T4 construct: expressed in transfected cells; host or cells: CHO-K1
T4 sequence (Q8TDU6 1-330): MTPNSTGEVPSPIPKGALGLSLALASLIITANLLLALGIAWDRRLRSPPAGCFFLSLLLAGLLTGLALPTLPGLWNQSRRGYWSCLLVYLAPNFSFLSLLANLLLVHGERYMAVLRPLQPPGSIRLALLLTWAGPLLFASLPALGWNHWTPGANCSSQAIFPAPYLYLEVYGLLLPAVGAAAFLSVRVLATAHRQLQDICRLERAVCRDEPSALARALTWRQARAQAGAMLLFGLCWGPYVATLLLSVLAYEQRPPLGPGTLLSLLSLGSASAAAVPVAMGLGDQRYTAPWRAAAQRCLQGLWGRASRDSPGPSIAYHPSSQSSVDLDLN
Description: as §2
All modulators were dissolved in DMSO, and cells were treated with a final concentration of 1% DMSO.

[5] = biological target: T5, MrgprA3 (Mus musculus, UniProt Q91WW3); test: Intracellular calcium measurement in HEK293T cells expressing mouse MrgprA3; assay type: cell-based; conditions: pretreated 10 min prior to 300 μM CQ; read-out: IC50 of inhibition of CQ-induced MrgprA3 activation
T5 construct: expressed in transfected cells; host or cells: HEK293T
T5 sequence (Q91WW3 1-302): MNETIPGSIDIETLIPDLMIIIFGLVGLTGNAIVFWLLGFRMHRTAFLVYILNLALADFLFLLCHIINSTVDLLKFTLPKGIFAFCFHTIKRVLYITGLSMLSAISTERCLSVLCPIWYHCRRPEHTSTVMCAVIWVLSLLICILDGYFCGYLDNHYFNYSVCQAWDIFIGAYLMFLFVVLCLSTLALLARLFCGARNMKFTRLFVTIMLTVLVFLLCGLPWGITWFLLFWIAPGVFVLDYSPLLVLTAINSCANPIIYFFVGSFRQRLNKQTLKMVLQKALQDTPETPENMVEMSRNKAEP
Description: MRGPRA3 and MRGPRC11 are mouse orthologs of human MRGPRX1, and MrgprA3 is also activated by CQ, resulting in CQ-induced pruritus. To investigate the inhibitory effect of berbamine on MrgprA3, we established HEK293T cells overexpressing MrgprA3. […] We further investigated whether berbamine inhibited CQ-induced ERK1/2 phosphorylation in HEK-MrgprA3 cells. Strong and significant ERK1/2 phosphorylation was observed following CQ application, and ERK1/2 phosphorylation peaked 5 min after CQ treatment (Figure 6A,B).
Figure 5 Effect of berbamine on CQ-induced activation of MrgprA3: (A) Intracellular calcium levels were measured in HEK293T cells expressing mouse MrgprA3. Cells were treated with indicated concentrations of CQ. (B) Summary of dose–response (mean ± S.E., n = 6). (C) Cells were pretreated with indicated concentrations of berbamine for 10 min prior to 300 μM CQ treatment. (D) Summary of dose-response (mean ± S.E., n = 6). (E) Representative traces of intracellular calcium responses to BAM8−22 in HEK293T cells expressing MrgprC11. […]
Intracellular calcium levels were measured using a Fluo-4 NW calcium assay kit (Invitrogen, Carlsbad, CA) as per the manufacturer’s protocol in HEK293T and HT29 cells. […] After 1 h of incubation, Fluo-4 fluorescence was recorded with a FLUOstar Omega microplate reader equipped with syringe pumps and custom Fluo-4 excitation/emission filters (485/538 nm). […]

[6] = tested on: CQ-sensitive strain of P. falciparum; design: method as in doi:10.1002/ddr.430300405; conditions: in vitro; read-out: IC50 antimalaria effect, CQ-sensitive strain; cited from earlier work
[7] = tested on: CQ-resistant strain of P. falciparum; design: method as in doi:10.1002/ddr.430300405; conditions: in vitro, compound alone; read-out: IC50 antimalaria effect, CQ-resistant strain; cited from earlier work

COc1cc2c3cc1Oc1c(OC)c(OC)cc4c1[C@@H](Cc1ccc(O)c(c1)Oc1ccc(cc1)C[C@@H]3N(C)CC2)N(C)CC4 [berbamine]
effect on histamine-induced activation of H1R [1]: did not affect
effect on histamine-induced activation of H4R [2]: did not affect
effect on DCA-induced activation of MrgprX4 [3]: did not alter
effect on DCA-induced activation of TGR5 [4]: did not alter
IC50 [5]: 2900 nM
IC50 [6]: 603 ± 47 nM
IC50 [7]: 359 ± 9 nM
